Results as given in patent US5376684A, “Aminoalkanephosphinic acids and salts thereof” (Ciba-Geigy Corporation, priority 1991, dated 1994).

Legend:
epileptic Wistar rats = settings: cited from earlier work
pyramidal cells = experiment: Penicillin-induced "epileptic" hippocampus section preparation; assay type: cell-based; settings: concentration of 6 μM
Experimental: The novel GABAB -antagonists according to the invention interact at the GABAB -receptor with IC50 values of approximately 10^-8 M (mol/l) and above in the corticocerebral membranes of rats. […] The antagonism towards baclofen can also be shown in vitro in electrophysiological models, for example in the penicillin-induced "epileptic" hippocampus section preparation in which baclofen in a concentration of 6 μM (micromol/liter) inhibits "epilepsy-like" discharges from pyramidal cells. The compounds according to the invention act as antagonists of baclofen action in concentrations of about 10 to about 100 μM (micromol/liter). In vivo the antagonism can be shown by ionto-phoresis of baclofen in rat cerebral cortex and by systemic use of antagonists in doses of from 10 to 100 mg/kg. In doses of about 30 mg/kg, antagonism occurs towards the muscle-relaxant action of baclofen, which is measured in the Rotarod model.

| SMILES | doses that reduce the spike and wave discharges in dependence upon dosage (epileptic Wistar rats) [mg/kg] | other results |
| --- | --- | --- |
| NC(=O)N1c2ccccc2C=Cc2ccccc21 [Carbamazepine] | – | effect on spike and wave discharges / attacks (epileptic Wistar rats): ineffective or worsen the attacks at higher doses |
| CCC1(c2ccccc2)C(=O)NC(=O)NC1=O [Phenobarbitone] | – | effect at 20 mg/kg (epileptic Wistar rats; 20 mg/kg): ineffective |
| NCC(CC(=O)O)c1ccc(Cl)cc1 (centres unmarked) [baclofen] | – | effect on "epilepsy-like" discharges from pyramidal cells (pyramidal cells): inhibits |
| CN1C(=O)CN=C(c2ccccc2)c2cc(Cl)ccc21 [diazepam] | ≥ 0.5 | – |
| CCC1(C)CC(=O)NC1=O (centres unmarked) [ethosuximide] | ≥ 25 | – |
| O=C1NC(=O)C(c2ccccc2)(c2ccccc2)N1 [phenytoin] | – | effect on spike and wave discharges / attacks (epileptic Wistar rats): ineffective or worsen the attacks at higher doses |
| CCCC(CCC)C(=O)[O-].[Na+] [sodium valproate] | ≥ 50 | – |
| CN1C(=O)OC(C)(C)C1=O [trimethadione] | ≥ 50 | – |
